Each compound was assayed against T1, human P2Y12 receptor (Homo sapiens, UniProt Q9H244) (assay: P2Y12 receptor binding assay). Conditions: CHO cells with recombinant human P2Y12 receptor; tritium-labeled 2-methyl-S-ADP; 2 hours at RT.
T1 construct: expressed in transfected cells; host or cells: Chinese Hamster Ovary (CHO) cells
Protocol: Chinese Hamster Ovary (CHO) cells with recombinant expression of the human P2Y12 receptor were cultured in 24 well cell-culture plates. Cells were washed three times with binding buffer (50 mM Tris pH 7.4, 100 mM NaCl, 1 mM EDTA, 0.5% BSA). The cells were then incubated with 0.5 ml per well binding buffer containing tritium-labeled 2-methyl-thio-adenosine 5′-diphosphate (2-methyl-S-ADP) (between 100'000 and 300'000 dpm per well) and various concentrations of test compounds. After incubation at RT for 2 hours, cells were washed three times with binding buffer. Then, cells were solubilized by addition of 0.5 ml solubilization buffer (SDS, NaOH, EDTA). The content of each well was then transferred into beta-counter vials and 2.0 ml of Ultima Gold Scintillation liquid was added.

T1 sequence (Q9H244 whole entry): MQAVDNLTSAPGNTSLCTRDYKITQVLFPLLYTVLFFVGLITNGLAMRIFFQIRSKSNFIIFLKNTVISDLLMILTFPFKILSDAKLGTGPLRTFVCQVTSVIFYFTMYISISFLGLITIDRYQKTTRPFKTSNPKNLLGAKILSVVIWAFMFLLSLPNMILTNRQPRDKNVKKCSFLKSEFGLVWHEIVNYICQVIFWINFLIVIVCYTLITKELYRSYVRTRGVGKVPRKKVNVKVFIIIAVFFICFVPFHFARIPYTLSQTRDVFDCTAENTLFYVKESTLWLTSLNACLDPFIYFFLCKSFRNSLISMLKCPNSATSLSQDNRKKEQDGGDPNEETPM

| Compound | IC50 [nM] |
| --- | --- |
| CCCCOC(=O)N1CCN(C(=O)[C@@H](NC(=O)c2cc(N3CC[C@H](OC)C3)cc(-c3ccccc3)n2)C(C)C)CC1 [Example 69, 4-((S)-2-{[4-((S)-3-methoxy-pyrrolidin-1-yl)-6-phenyl-pyridine-2-carbonyl]-amino}-3-methyl-butyryl)-piperazine-1-carboxylic acid butyl ester] | 109 |
| CCOC(=O)N1CCN(C(=O)[C@H](CCC(=O)O)NC(=O)c2nc(-c3ccccc3)cc(C3CC3)c2OC)CC1 [Example 71, 4-{(S)-4-carboxy-2-[(4-cyclopropyl-3-methoxy-6-phenyl-pyridine-2-carbonyl)-amino]-butyryl}-piperazine-1-carboxylic acid ethyl ester] | 510 |
| CCOC(=O)N1CCN(C(=O)[C@H](CCC(=O)OC(C)(C)C)NC(=O)c2cc(Cl)cc(-c3ccccc3)n2)CC1 [Example 39, 4-{(S)-4-O-tert-butoxycarbonyl-2-[(4-chloro-6-phenyl-pyridine-2-carbonyl)-amino]-butyryl}-piperazine-1-carboxylic acid ethyl ester] | 2150 |
| CCOC(=O)N1CCN(C(=O)[C@H](CCC(=O)O)NC(=O)c2cc(-c3ccsc3)cc(-c3ccccc3)n2)CC1 [Example 32, 4-{(S)-4-carboxy-2-[(6-phenyl-4-thiophen-3-yl-pyridine-2-carbonyl)-amino]-butyryl}-piperazine-1-carboxylic acid ethyl ester] | 67 |
| CCOC(=O)N1CCN(C(=O)[C@H](CCC(=O)O)NC(=O)c2cc(CCC(C)(C)O)cc(-c3ccccc3)n2)CC1 [Example 28, 4-((S)-4-carboxy-2-{[4-(3-hydroxy-3-methyl-butyl)-6-phenyl-pyridine-2-carbonyl]-amino}-butyryl)-piperazine-1-carboxylic acid ethyl ester] | 96 |
| CCCCOC(=O)N1CCN(C(=O)[C@H](CCC(=O)OC(C)(C)C)NC(=O)c2cc(N3CC[C@H](OC)C3)cc(-c3ccccc3)n2)CC1 [Example 72, 4-((S)-4-tert-butoxycarbonyl-2-{[4-((S)-3-methoxy-pyrrolidin-1-yl)-6-phenyl-pyridine-2-carbonyl]-amino}-butyryl)-piperazine-1-carboxylic acid butyl ester] | 1760 |
| CCOC(=O)N1CCN(C(=O)[C@H](CCC(=O)O)NC(=O)c2cc(Cl)cc(-c3ccccc3)n2)CC1 [Example 1, 4-{(S)-4-carboxy-2-[(4-chloro-6-phenyl-pyridine-2-carbonyl)-amino]-butyryl}-piperazine-1-carboxylic acid ethyl ester] | 34 |
| CCOC(=O)N1CCN(C(=O)[C@H](Cc2nn[nH]n2)NC(=O)c2cc(-c3ccccc3)cc(-c3ccccc3)n2)CC1 [Example 66, 4-[(S)-2-[(4,6-diphenyl-pyridine-2-carbonyl)-amino]-3-(2H-tetrazol-5-yl)-propionyl]-piperazine-1-carboxylic acid ethyl ester] | 40 |
| CCCCNc1cc(C(=O)N[C@@H](CCC(=O)O)C(=O)N2CCN(C(=O)OCC)CC2)nc(-c2ccccc2)c1F [Example 75, 4-{(S)-2-[(4-butylamino-5-fluoro-6-phenyl-pyridine-2-carbonyl)-amino]-4-carboxy-butyryl}-piperazine-1-carboxylic acid ethyl ester] | 386 |
| CCOC(=O)N1CCN(C(=O)[C@H](CCC(=O)O)NC(=O)c2cc(OC3CCOC3)cc(-c3ccccc3)n2)CC1 (stereo partly drawn) [Example 37, 4-((S)-4-carboxy-2-{[6-phenyl-4-(tetrahydro-furan-3-yloxy)-pyridine-2-carbonyl]-amino}-butyryl)-piperazine-1-carboxylic acid ethyl ester] | 94 |
| CCOC(=O)N1CCN(C(=O)[C@H](CO)NC(=O)c2cc(-c3ccccc3)cc(-c3ccccc3)n2)CC1 [Example 24, 4-{(S)-2-[(4,6-diphenyl-pyridine-2-carbonyl)-amino]-3-hydroxy-propionyl}-piperazine-1-carboxylic acid ethyl ester] | 204 |

Reference: patent US8093250B2, “2-aminocarbonyl-pyridine derivatives” (Actelion Pharmaceuticals Ltd., priority 2006, dated 2012)
